Measured values: patent US20220089575A1, “FARNESOID X RECEPTOR AGONISTS AND USES THEREOF” (Metacrine, Inc., priority 2017, published 2022)

What follows are molecules tested against T1, hFXR (Homo sapiens, UniProt Q96RI1) (assay: In Vitro FXR Assay (TK): TK-ECRE-luc reporter in transfected CV-1 cells). Conditions: 18 hrs, luminescence, maximum efficacy of <25% of the Fexarmine control classified as '+'.
T1 construct: expressed in transfected cells; host or cells: CV-1 cells
T1 sequence (Q96RI1 1-486): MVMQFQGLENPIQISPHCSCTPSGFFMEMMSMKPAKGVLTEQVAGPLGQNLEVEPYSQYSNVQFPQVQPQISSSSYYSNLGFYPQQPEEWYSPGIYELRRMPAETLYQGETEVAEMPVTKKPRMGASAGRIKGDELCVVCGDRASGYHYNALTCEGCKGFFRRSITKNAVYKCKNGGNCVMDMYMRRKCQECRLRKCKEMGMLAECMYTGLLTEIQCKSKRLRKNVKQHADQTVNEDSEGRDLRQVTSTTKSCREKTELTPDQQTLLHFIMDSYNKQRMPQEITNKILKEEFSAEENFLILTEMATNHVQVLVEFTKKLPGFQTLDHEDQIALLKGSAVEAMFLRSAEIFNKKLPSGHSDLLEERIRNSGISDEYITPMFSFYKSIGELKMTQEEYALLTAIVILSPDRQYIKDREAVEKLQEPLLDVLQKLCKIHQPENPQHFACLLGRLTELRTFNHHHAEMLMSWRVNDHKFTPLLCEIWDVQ
T1 sequence (P19793 1-462 partner): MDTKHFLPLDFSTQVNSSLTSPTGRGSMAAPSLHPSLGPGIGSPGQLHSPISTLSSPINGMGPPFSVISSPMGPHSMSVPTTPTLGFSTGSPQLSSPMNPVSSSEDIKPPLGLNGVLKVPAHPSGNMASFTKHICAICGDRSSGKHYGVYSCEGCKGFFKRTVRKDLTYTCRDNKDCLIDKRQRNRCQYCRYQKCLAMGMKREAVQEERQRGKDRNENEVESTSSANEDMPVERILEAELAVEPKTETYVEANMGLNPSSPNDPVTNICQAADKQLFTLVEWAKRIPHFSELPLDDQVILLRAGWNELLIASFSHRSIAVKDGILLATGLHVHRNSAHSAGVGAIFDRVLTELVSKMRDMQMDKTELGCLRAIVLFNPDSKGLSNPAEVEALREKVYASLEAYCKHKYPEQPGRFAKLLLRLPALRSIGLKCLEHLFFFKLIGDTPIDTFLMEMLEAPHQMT
Format: cell-based
Procedure, shortened: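 Reporter transactivation by hFXR was measured in CV-1 cells carrying hRXR and a TK-ECRE-luc construct, with compound treatment for 18 h before lysis and luminescence detection.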

Structure (SMILES)	EC50
COc1ccc([C@H]2CC[C@H](CN(c3cc(-c4coc(C5CC5)n4)ccn3)C(=O)[C@H]3CC[C@H](OC(=O)N4CC(OC(C)C)C4)CC3)CC2)nc1C [Compound 7.91, trans-4-((4-(2-Cyclopropyloxazol-4-yl)pyridine-2-yl)((trans-4-(5-methoxy-6-methylpyridin-2-yl)cyclohexyl)methyl)carbamoyl)cyclohexyl 3-isopropoxyazetidine-1-carboxylate]	≤ 0.25 µM
COc1ccc([C@H]2CC[C@H](CN(c3cccc(-c4cnn(C5CC5)c4)c3)C(=O)[C@H]3CC[C@H](OC(=O)N4CC(CSC)C4)CC3)CC2)cc1C [Compound 4.28, trans-4-((3-(1-Cyclopropyl-1H-pyrazol-4-yl)phenyl)((trans-4-(4-methoxy-3-methylphenyl)cyclohexyl)methyl)carbamoyl)cyclohexyl 3-((methylthio)methyl)azetidine-1-carboxylate]	≤ 0.25 µM
COc1ccc(C23CCC(CN(c4cc(-c5cnc(C6CC6)s5)ccn4)C(=O)[C@H]4CC[C@H](C(=O)O)CC4)(CC2)CC3)cc1C [Compound 17.07, trans-4-((4-(2-Cyclopropylthiazol-5-yl)pyridin-2-yl)((4-(4-methoxy-3-methylphenyl)bicyclo[2.2.2]octan-1-yl)methyl)carbamoyl) cyclohexanecarboxylic acid]	≤ 0.25 µM
CNC(=O)O[C@H]1CC[C@H](C(=O)N(C[C@H]2CC[C@H](c3ccc(OC)c(C#N)n3)CC2)c2cccc(-c3cnc(C4CC4)s3)c2)CC1 [Compound 5.06, trans-4-(((trans-4-(6-Cyano-5-methoxypyridin-2-yl)cyclohexyl)methyl)(3-(2-cyclopropylthiazol-5-yl)phenyl)carbamoyl)cyclohexyl methylcarbamate]	≤ 0.25 µM
CNC(=O)O[C@H]1CC[C@H](C(=O)N(C[C@H]2CC[C@H](c3ccc(OC)c(C)c3)CC2)c2cc(-c3cnc(C4CC4)s3)ccn2)CC1 [Compound 5.01, trans-4-((4-(2-Cyclopropylthiazol-5-yl)pyridin-2-yl)((trans-4-(4-methoxy-3-methylphenyl)cyclohexyl)methyl)carbamoyl)cyclohexyl methylcarbamate]	≤ 0.25 µM

Second part, the molecule after the results:

EC50	Structure (SMILES)
≤ 0.25 µM	COc1ccc([C@H]2CC[C@H](CN(c3cccc(-c4cnc(C5CC5)s4)c3)C(=O)[C@H]3CC[C@H](NC(=O)CS(C)(=O)=O)CC3)CC2)cc1C [Compound 31.12, trans-N-(3-(2-Cyclopropylthiazol-5-yl)phenyl)-N-((trans-4-(4-methoxy-3-methylphenyl)cyclohexyl)methyl)-4-(2-(methylsulfonyl)acetamido) cyclohexanecarboxamide]
≥ 1 µM	COc1ccc([C@H]2CC[C@@H](CN(c3cccc(-c4coc(C5CC5)n4)c3)C(=O)[C@H]3CC[C@H](CC(=O)O)CC3)CC2)nc1C [Compound 21.04, 2-(trans-4-((3-(2-Cyclopropyloxazol-4-yl)phenyl)((cis-4-(5-methoxy-6-methylpyridin-2-yl)cyclohexyl)methyl)carbamoyl)cyclohexyl) acetic acid]
≤ 0.25 µM	COc1ccc([C@H]2CC[C@H](CN(c3cc(-c4coc(C5CC5)n4)ccn3)C(=O)[C@H]3CC[C@H](CC(=O)O)CC3)CC2)cc1C [Compound 21.01, 2-(trans-4-((4-(2-Cyclopropyloxazol-4-yl)pyridin-2-yl)((trans-4-(4-methoxy-3-methylphenyl)cyclohexyl)methyl)carbamoyl)cyclohexyl)acetic acid]
≤ 0.25 µM	COc1ccc([C@H]2CC[C@H](CN(c3cc(-c4cnn(C5CC5)c4)ccn3)C(=O)[C@H]3CC[C@H](NC(=O)CO)CC3)CC2)cc1C [Compound 26.32, trans-N-(4-(1-Cyclopropyl-1H-pyrazol-4-yl)pyridin-2-yl)-4-(2-hydroxyacetamido)-N-((trans-4-(4-methoxy-3-methylphenyl)cyclohexyl)methyl) cyclohexanecarboxamide]
